“And” between values parts separate entries of the source, which are not always exact repeats. Identical values can stand only once.
Legend:
[1] = tested on: GBS wild type strain COH1; experiment: GBS survival with porphyrin supplementation and 30 min incubation (optional wash), with or without pulsed 450 nm light (Study 2); type: cell-based, Group B Streptococcus (GBS)
Description: (§1) GBS wild type strain COH1 was added to 3 mL of Todd Hewitt broth and grown aerobically overnight at 37° C. From the overnight cultures, 500 uL of GBS was added to fresh Todd Hewitt broth and grown logarithmically at 37° C. until reaching a concentration of 10^8 CFU/mL. The culture was then centrifuged at 1300 rpm for three minutes, the supernatant was removed and discarded, and 1 mL of fresh Todd Hewitt broth was added.
The culture was then split into three Eppendorf tubes—a first tube for GBS and second and third tubes for GBS with diluted porphyrins used for incubation. Diluted porphyrins (PPIX or CP III) were added into the second and third tubes and incubated for 30 minutes at 37° C. The third tube was then washed three times with phosphate-buffered saline (PBS) and centrifuged at 1300 rpm for three minutes, and the supernatant was removed and discarded. Serial dilutions of NaCl were made to obtain a suspension of GBS diluted to a concentration of 1×10^4 CFU/mL. The GBS were streaked onto Todd Hewitt agar plates.
The lighted substrate was set to operate in 33% DF pulsed mode and driven with a constant current source. The average irradiance was 3 mW/cm^2. The pulse duration was 10 microseconds with an off time of 20 microseconds, and a pulse repetition rate of 33 kHz. The plates subject to light treatment were irradiated three times at […] with a radiant exposure of 7.56 J/cm^2 during each irradiation session (i.e., each irradiation session was 42 minutes with an incubation period therebetween of 30 minutes).
(§2) After irradiation protocols were completed, the plates were placed upside down in the anaerobic chamber and incubated at 37° C. for 24 hours. The plates were photographed, colonies counted and statistics of percent survival recorded.

[2] = tested on: GBS wild type strain COH1; experiment: GBS survival with porphyrin supplementation, with or without pulsed 450 nm light (Study 1, no incubation); type: cell-based, Group B Streptococcus (GBS)
Description: as §1, with “added. Serial dilutions of NaCl were made to obtain a suspension of GBS diluted to a concentration of 1×10^4 CFU/mL. The GBS were streaked onto Todd Hewitt agar plates both with and without the addition of diluted porphyrins (different concentrations of PPIX or CP III).” for “added.”
The lighted substrate was set to operate in 33% DF pulsed mode and driven with a constant current source. The average irradiance was 3 mW/cm^2. The pulse duration was 10 microseconds with an off time of 20 microseconds, and a pulse repetition rate of 33 kHz. The plates subject to light treatment were irradiated three times at […] with a radiant exposure of 7.56 J/cm^2 during each irradiation session (i.e., each irradiation session was 42 minutes with an incubation period there between of 30 minutes).
as §2

[3] = 0.2 mg/mL (incubated) + pulsed 450 nm light 7.56 J/cm^2, three irradiations
[4] = 0.2 mg/mL (incubated), without any irradiation
[5] = 0.05 mg/mL porphyrin + pulsed 450 nm light, 7.56 J/cm^2, 3 mW/cm^2, 33% DF, three irradiations

Compound	percent GBS survival compared to the control ([1]; 0.05 mg/mL (incubated and washed) + pulsed 450 nm light 7.56 J/cm^2, three irradiations) [%]	percent GBS survival compared to the control ([1]; 0.05 mg/mL (incubated and washed), no irradiation)	percent GBS survival compared to the control ([1]; 0.05 mg/mL (incubated) + pulsed 450 nm light 7.56 J/cm^2, three irradiations) [%]	percent GBS survival compared to the control ([1]; 0.05 mg/mL (incubated), without any irradiation)	percent GBS survival compared to the control [1, 3]	percent GBS survival compared to the control [1, 4]	percent GBS survival compared to the control ([2]; 0.02 mg/mL porphyrin, without any irradiation)	percent GBS survival compared to the control [2, 5]	percent GBS survival compared to the control ([2]; 0.05 mg/mL porphyrin, without any irradiation)	percent GBS survival compared to the control ([1]; 0.02 mg/mL (incubated and washed) + pulsed 450 nm light 7.56 J/cm^2, three irradiations)	percent GBS survival compared to the control ([1]; 0.02 mg/mL (incubated and washed), no irradiation)	percent GBS survival compared to the control ([1]; 0.02 mg/mL (incubated) + pulsed 450 nm light 7.56 J/cm^2, three irradiations)	percent GBS survival compared to the control ([1]; 0.02 mg/mL (incubated), without any irradiation)	percent GBS survival compared to the control ([1]; 0.08 mg/mL (incubated and washed) + pulsed 450 nm light 7.56 J/cm^2, three irradiations)	percent GBS survival compared to the control ([1]; 0.08 mg/mL (incubated and washed), no irradiation)	percent GBS survival compared to the control ([1]; 0.08 mg/mL (incubated) + pulsed 450 nm light 7.56 J/cm^2, three irradiations)	percent GBS survival compared to the control ([1]; 0.08 mg/mL (incubated), without any irradiation)	percent GBS survival compared to the control ([1]; 0.2 mg/mL (incubated and washed) + pulsed 450 nm light 7.56 J/cm^2, three irradiations)	percent GBS survival compared to the control ([1]; 0.2 mg/mL (incubated and washed), no irradiation)	percent GBS survival compared to the control ([2]; 0.02 mg/mL porphyrin + pulsed 450 nm light, 7.56 J/cm^2, 3 mW/cm^2, 33% DF, three irradiations) [%]
coproporphyrin III [CP III]	0	approximately 72%	0	approximately 90%	0%	approximately 82%	approximately 74%	0%	approximately 84%	–	–	–	–	–	–	–	–	–	–	–
C=CC1=C(C)c2cc3[nH]c(cc4nc(cc5[nH]c(cc1n2)c(C)c5CCC(=O)O)C(CCC(=O)O)=C4C)c(C)c3C=C [PPIX, protoporphyrin IX]	–	–	–	–	approximately 50%	approximately 80%	–	3% and 0%	–	approximately 18%	approximately 92%	approximately 68%	approximately 92%	approximately 40%	approximately 76%	approximately 52%	approximately 84%	approximately 10%	approximately 78%	0

Source: patent US20220193445A1, “PHOTOERADICATION OF MICROORGANISMS WITH PULSED PURPLE OR BLUE LIGHT” (SAN DIEGO STATE UNIVERSITY RESEARCH FOUNDATION, priority 2016, published 2022)
